# In patent US20080138326A1, “Method for cancer treatment, carcinogenesis suppression or mitigation of adverse reactions of anticancer agents” (Kaneka Corporation, priority 2006, published 2008):
# Marks after values point to notes of the source that are not given here.
# Assays:
# [1] = test system: Normal human skin fibroblasts (NHDF); test: Promotive effect on cell activation in skin fibroblasts (intracellular ATP content); type: cell-based; conditions: 48 hours; for ATP level: HCO-60 solvent; for intracellular ATP levels compared with solvent control: 0.12 and 0.98 μg/ml
# Procedure: The reduced coenzyme Q10 obtained in Production Example 1 and the oxidized coenzyme Q10 used as a raw material in Production Example 1 were respectively dissolved in undiluted HCO-60 (polyoxyethylene hydrogenated castor oil, Nihon Surfactant Kogyo K.K.) to give test samples.
# Normal human skin fibroblasts (NHDF, Kurabo Industries) were cultured in a Medium 106S basal medium (Kurabo Industries) supplemented with 2% fetal bovine serum, 10 μg/ml heparin, 1 μg/ml hydrocortisone, 10 ng/ml human recombinant […], and human recombinant basic fibroblast growth factor 3 ng/ml, at 37° C. in the presence of 5% CO2. After becoming confluent, the cells were sown to a 96-well microplate at 2.0×10^3 cells per well. The medium used at the time of cell sowing was a Medium 106S (Kurabo Industries, Ltd.) supplemented with 2% fetal bovine serum, 10 μg/ml heparin, and 1 μg/ml hydrocortisone. After cultivation for 24 hours, the test samples were replaced with the same medium added with the oxidized or reduced coenzyme Q10 such that the concentrations were to be 0.12 and 0.98 μg/ml, and the cells were further cultured for 48 hours. The same amount of HCO-60 alone was added to the medium, and the resulting solution was used as a control. The medium was then removed, and the microplate was washed with PBS (GIBCO), after which intracellular ATP contents were determined using an ATP assay kit (Perkin-Elmer) and compared.
# For statistical analysis, a parametric multiple comparison (Tukey type) was performed. In comparison with the solvent-only control group, * indicates a significance level of less than 5%, and ** indicates a significance level of less than 1%. In comparison with oxidized coenzyme Q10, † indicates a significance level of less than 5%.
# [2] = test system: Human breast cancer-derived cells (MCF-7); test: Suppressive effect on cell activation in cancer-derived cells (intracellular ATP content); type: cell-based; conditions: 24 hours; for intracellular ATP content compared with control group: 80 μg/ml, Tween 80 control = 100%, P<0.0011
# Procedure: The reduced coenzyme Q10 obtained in Production Example 1 and the oxidized coenzyme Q10 used as a raw material in Production Example 1 were respectively dissolved in undiluted Tween 80 (MP Biomedicals) to give test samples.
# Human breast cancer-derived cells (MCF-7, supplied by ATCC) were cultured in a Dulbecco's modified MEM medium (GIBCO) supplemented with 200 U of penicillin, […] streptomycin, and 10% fetal bovine serum at 37° C. in the presence of 5% CO2. After becoming confluent, the cells were sown to a 96-well microplate (IWAKI) at 2.0×10^4 cells per well. Twenty-four hours after the sowing, the medium was replaced with a Dulbecco's modified MEM medium containing 0.5% fetal bovine serum, and the above test samples were added to said medium such that the concentrations of Tween 80 were to be […], 0.025 and 0.05% (the concentrations of the reduced coenzyme Q10 or oxidized coenzyme Q10 in the medium were 20, 40 and 80 μg/ml). Tween 80 alone was added to the Dulbecco's modified MEM medium containing 0.5% fetal bovine serum such that the concentrations were to be the same, and the resulting solution was used as a control. Twenty-four hours later, the medium was removed, and the microplate was washed with PBS (GIBCO), after which intracellular ATP contents were determined using an ATP assay kit (Perkin-Elmer) and compared. The results are shown in FIG. 2, where the determined intracellular ATP amount for the control sample is given a value of 100% and the determined intracellular ATP amounts for the test samples were compared to this value.
# rats = conditions: 1.2 g/kg/day for 52 consecutive weeks; cited from earlier work
# [3] = test system: Normal human skin fibroblasts (NHDF); test: Suppressive effect on LDL-induced cell proliferation (BrdU incorporation ELISA); type: cell-based; conditions: LDL containing reduced coenzyme Q10 (2.44-78.2 μg/ml) vs LDL control sample = 100%; 48 hours
# Procedure: Human LDL (BIODESIGN) and Medium 106S (Kurabo Industries, Ltd.), a basal medium for normal human skin fibroblasts, were mixed to prepare a LDL-containing medium. The reduced coenzyme Q10 obtained in Production Example 1 was dissolved into the LDL-containing medium at 50° C. with sonication. This was followed by membrane filtration, and the filtrate obtained was used as the test sample stock solution.
# Likewise, the LDL-containing medium as is (without adding reduced coenzyme Q10) was subjected to membrane filtration and the filtrate obtained was used as the control sample stock solution. The LDL concentrations of the test sample stock solution and the control sample stock solution were same.
# The concentration of reduced coenzyme Q10 in the test sample stock solution was measured by high performance liquid chromatography (column: length 25 cm, diameter 4.6 mm, YMC-PACK ODS-A (YMC), mobile phase: methanol-hexane (85:15, v/v), detection wavelength: 290 nm, flow rate: 1.0 mL/min). As a result, the weight percent of reduced coenzyme Q10 based on the total weight of coenzyme Q10 in the test sample stock solution was calculated to be 84.1% by weight, and the concentration of reduced coenzyme Q10 in the test sample stock solution was calculated to be 234.68 μg/ml. […]
# [4] = test system: aberrant crypt foci (ACF) in the rat large intestine; test: Rat colorectal carcinogenesis model (azoxymethane-initiated aberrant crypt foci); type: in vivo; conditions: four weeks; for Number of ACFs, 1 crypt, percent of control group / Number of ACFs, 2 crypts, percent of control group / Number of ACFs, 3 crypts, percent of control group / Number of ACFs, 4 crypts or more, percent of control group / Total ACF number/large intestine specimen, percent of control group / Total ACs number/large intestine specimen, percent of control group: control group = 100%; for Mean ACs number/focus / Number of ACFs formed in the large intestine, 1 crypt / Number of ACFs formed in the large intestine, 2 crypts / Number of ACFs formed in the large intestine, 3 crypts / Number of ACFs formed in the large intestine, 4 crypts or more / Total ACF number/large intestine specimen / Total ACs number/large intestine specimen: mean ± standard deviation
# Procedure: To examine the effect of reduced coenzyme Q10 on carcinogenesis, a test was performed using a rat colorectal carcinogenesis model. This test method represents a rodent model of two-stage carcinogenesis, targeting the rat large intestine. Because carcinogenesis research using this test method is widely conducted for screening for cancer prophylactic agents and other purposes, the test results are sufficiently reliable.
# Twenty-seven male F344 rats at 6 weeks of age were divided into three groups (9 animals/group) by computer-based randomized block design in a way such that no statistically significant difference would be produced in mean body weight. For initiation treatment for colorectal carcinogenesis, each rat was given azoxymethane (AOM) by subcutaneous administration at a dose of 15 mg/kg body weight once weekly for two weeks.
# Starting on the day before administration of AOM, reduced coenzyme Q10 in solution in vehicle (olive oil) at a concentration of 20 or 50 mg/ml was given by gavage at doses of 0 (control group, group 1), 20, and 50 mg/kg (groups 2 and 3) on consecutive days for four weeks. The control group (group 1) received only the vehicle for administering reduced coenzyme Q10.
# Four weeks after initial administration of reduced coenzyme Q10, all rats were autopsied, and the large intestine (colon and rectum, excluding the cecum) was extirpated. The large intestine with its ends ligated was fixed with injected 10% neutrally buffered formalin solution, after which the large intestine was incised and applied over filter paper flatly. Subsequently, the large intestine was post-fixed with 10% neutrally buffered formalin solution. After fixation, the large intestine was stained with 0.2% Methylene Blue solution in physiological saline for about 10 minutes, and the mucosal surface of the large intestine was examined using a stereomicroscope, whereby aberrant crypt foci (ACF), a form of precancerous lesion in colorectal cancer, were counted.
# ACF was counted and classified by number of crypts present therein. Data were obtained as total ACF number per large intestine (colon and rectum) specimen, total crypt number per large intestine specimen, and mean crypt number per ACF (Table 2).
# Furthermore, total ACF number per large intestine specimen was calculated according to the number of crypts in each ACF (Table 3).
# For statistical analysis, Bartlett's homogeneity test was performed to compare group 1 and groups 2 and 3. […] In the case of non-homogenous dispersion, Dunnett's multiple comparison test based on a non-parametric approach (joint ranking method) was performed.
structure (smiles),measurement,setting,value
"COC1=C(OC)C(=O)C(C/C=C(\C)CC/C=C(\C)CC/C=C(\C)CC/C=C(\C)CC/C=C(\C)CC/C=C(\C)CC/C=C(\C)CC/C=C(\C)CC/C=C(\C)CCC=C(C)C)=C(C)C1=O [Oxidized coenzyme Q10, oxidized coenzyme Q10, reference compound]",ATP level,[1]; 0.12 μg/ml,183.23 ± 62.70* nM
same,ATP level,[1]; 0.98 μg/ml,224.84 ± 43.55* nM
same,intracellular ATP levels compared with solvent control,[1],significantly elevated
same,intracellular ATP content compared with control group,[2],decreased significantly
same,toxic signs,rats,no toxic signs were observed
"COc1c(O)c(C)c(C/C=C(\C)CC/C=C(\C)CC/C=C(\C)CC/C=C(\C)CC/C=C(\C)CC/C=C(\C)CC/C=C(\C)CC/C=C(\C)CC/C=C(\C)CCC=C(C)C)c(O)c1OC [Reduced coenzyme Q10, reduced coenzyme Q10]",elevation of cell division activity (BrdU incorporated in the nucleus) induced by LDL,[3],suppressed
same,ATP level,[1]; 0.12 μg/ml,277.21 ± 46.02**† nM
same,ATP level,[1]; 0.98 μg/ml,267.24 ± 20.72** nM
same,intracellular ATP levels compared with solvent control,[1],significantly elevated
same,"intracellular ATP levels, reduced compared with oxidized coenzyme Q10",[1],significantly elevated
same,"Number of ACFs, 1 crypt, percent of control group",[4]; 20 mg/kg by gavage,(71)** %
same,"Number of ACFs, 2 crypts, percent of control group",[4]; 20 mg/kg by gavage,(79) %
same,"Number of ACFs, 3 crypts, percent of control group",[4]; 20 mg/kg by gavage,(100) %
same,"Number of ACFs, 4 crypts or more, percent of control group",[4]; 20 mg/kg by gavage,(97) %
same,"Total ACF number/large intestine specimen, percent of control group",[4]; 20 mg/kg by gavage,(80) %
same,"Total ACs number/large intestine specimen, percent of control group",[4]; 20 mg/kg by gavage,(84) %
same,Mean ACs number/focus,[4]; 20 mg/kg by gavage,1.77 ± 0.16
same,"Number of ACFs formed in the large intestine, 1 crypt",[4]; 20 mg/kg by gavage,47 ± 12
same,"Number of ACFs formed in the large intestine, 2 crypts",[4]; 20 mg/kg by gavage,39 ± 9
same,"Number of ACFs formed in the large intestine, 3 crypts",[4]; 20 mg/kg by gavage,18 ± 12
same,"Number of ACFs formed in the large intestine, 4 crypts or more",[4]; 20 mg/kg by gavage,7 ± 6
same,Total ACF number/large intestine specimen,[4]; 20 mg/kg by gavage,113 ± 32
same,Total ACs number/large intestine specimen,[4]; 20 mg/kg by gavage,214 ± 81
same,"Number of ACFs, 1 crypt, percent of control group",[4]; 50 mg/kg by gavage,(61)*** %
same,"Number of ACFs, 2 crypts, percent of control group",[4]; 50 mg/kg by gavage,(70)** %
same,"Number of ACFs, 3 crypts, percent of control group",[4]; 50 mg/kg by gavage,(80) %
same,"Number of ACFs, 4 crypts or more, percent of control group",[4]; 50 mg/kg by gavage,(78) %
same,"Total ACF number/large intestine specimen, percent of control group",[4]; 50 mg/kg by gavage,(74)* %
same,"Total ACs number/large intestine specimen, percent of control group",[4]; 50 mg/kg by gavage,(71)* %
same,Mean ACs number/focus,[4]; 50 mg/kg by gavage,1.76 ± 0.33
same,"Number of ACFs formed in the large intestine, 1 crypt",[4]; 50 mg/kg by gavage,40 ± 10
same,"Number of ACFs formed in the large intestine, 2 crypts",[4]; 50 mg/kg by gavage,35 ± 11
same,"Number of ACFs formed in the large intestine, 3 crypts",[4]; 50 mg/kg by gavage,15 ± 7
same,"Number of ACFs formed in the large intestine, 4 crypts or more",[4]; 50 mg/kg by gavage,6 ± 4
same,Total ACF number/large intestine specimen,[4]; 50 mg/kg by gavage,104 ± 26
same,Total ACs number/large intestine specimen,[4]; 50 mg/kg by gavage,181 ± 54
same,"gross condition, mortality, food consumption, and body weight during the treatment period","[4]; 20 and 50 mg/kg by gavage, male F344 rats",no changes associated with administration of the test substance were observed
same,total ACF number and total crypt number per large intestine specimen compared with the control group,"[4]; 20 and 50 mg/kg by gavage, statistically significant in the 50 mg/kg group",decreased
same,total ACF number for 1-crypt ACF or 2-crypt ACF,"[4]; 20 and 50 mg/kg by gavage, vs control group",decreased significantly
same,"intracellular ATP content, reduced compared with oxidized coenzyme Q10","[2]; 80 μg/ml each, P<0.05",significantly lower
same,intracellular ATP content compared with control group,[2],decreased significantly
